{"source": "patent US7270968B2", "about": "“PTH analogs for renal osteodystrophy and related uses” (The General Hospital Corporation, priority 2000, dated 2007)", "key": {"[1]": {"test_system": "OC14 cells", "assay": "Apoptosis by TUNEL assay in OC cells", "assay_type": "cell-based, mouse", "settings": "100 nM, 6 hr", "experimental": "(§1) Cells plated on glass coverslips and maintained at 33° C. for 33 days were shifted to 39° C. for 5-7 days before addition of 100 nM hPTH(1-84) (B, D) or vehicle alone (A, C) for 6 hr. At the end of the incubations, cells were fixed and stained with Hoechst 33258 (A and B) or for TUNEL (C and D) (see Example 1). Arrows indicate apoptotic cells. 200× magnification.\n(§2) The pyknotic fragmentation of nuclei typical of apoptotic cells was detected using Hoechst-33258 fluorescent dye (Sigma Co., St. Louis, Mo., U.S.A.). Briefly, cells were cultured on glass coverslips and maintained in culture at nonpermissive conditions for 4-6 days in (α-MEM supplemented with 2-5% of FBS and 1% PS. After exposure to the test hormones for 6 hr, culture medium was aspirated and cells were fixed in 4% paraformaldehyde in phosphate buffered solution and then stained with Hoechst-33258 ([…]) for 5 min at room temperature. Cells were washed and mounted with glycerol-PBS (9:1, v/v). The stained nuclei were visualized by fluorescence microscopy using DAPI filter. In some experiments, apoptotic cells were detected by the terminal deoxynucleotidyl transferase-mediated nick end labeling (TUNEL) reaction, using the In Situ Cell Death Detection Kit from Roche Molecular Biochemicals (Indianapolis, Ind., U.S.A.) following the manufacturer's instruction."}, "[2]": {"test_system": "OC14 cells", "assay": "Apoptosis by Hoechst 33258 DNA staining in OC cells", "assay_type": "cell-based, mouse", "settings": "100 nM, 6 hr", "experimental": "as §1, §2"}, "[3]": {"test_system": "CPTHR", "assay": "Downregulation of CPTHR binding in C59 cells after pretreatment", "assay_type": "cell-based, mouse", "settings": "preincubation 16 h", "experimental": "Specific binding, is expressed as mean ± standard deviation of triplicates. * p<0.05, ** P<0.01.\nFor binding experiments, cells (100,000 cells/ml) were plated in 24-well dishes and cultured at 33° C. for 7 to 14 days. […] Receptor number was ascertained by Scatchard analysis, using [Tyr^34]hPTH-(19-84) or hPTH(1-84) as competing ligand. […] In some experiments, cells were washed with acidic buffer (50 mM glycine, 150 mM NaCl, pH 4.0) to remove residual bound ligand, prior to addition of radioligand.\n(1 mM), forskolin (10 μM), insulin (100 ng/mL), IGF-1 ([…]) or dexamethasone (100 nM)."}, "[4]": {"test_system": "Gs-linked PTH receptors", "assay": "Cyclic AMP accumulation in C cells (OC1, OC14, OC59)", "assay_type": "cell-based, mouse", "settings": "three C cells", "experimental": "The buffer then was rapidly aspirated, the plates were frozen in liquid nitrogen, and the frozen cells were subsequently thawed directly into 0.5 ml of 50 mM HCl. Cell-associated cAMP in the acid extracts was measured using an RIΛ kit (NUN Life Science Products, Boston, Mass., U.S.A.). Results were expressed as picomoles of cAMP produced per well over 15 min."}, "[5]": {"test_system": "C×43 expression", "assay": "Connexin 43 immunocytochemical staining in OC cells", "assay_type": "cell-based, mouse", "settings": "100 nM, 2 hr", "experimental": "OC14 cells were plated on glass coverslips at 72,000 cells/cm^2, cultured at 33° C. for 2 days and then shifted at 39° C. for 3-5 days before stimulation with CPTHR ligands. OC14 cells were treated for 2 hr with (A) vehicle alone, (B) 100 nM hPTH(1-84) or (C) 1000 nm hPTH(39-84). Cells were fixed and stained for C×43 expression as described (see Example 1).\nFor Immunocytochemical analysis, cells were plated on glass chamber slides at 72,000 cells/cm^2, cultured for two days at 33° C. and then shifted for an additional 4-6 days at 39° C. Cells were treated with vehicle alone (0.1% TFA) or with the appropriate hormone for the time indicated. The immunocytochemical staining was performed as previously described (Kato, Y., et al., J. Bone Miner. Res. 12:2014-2023 (1997)). Briefly, cells were fixed in 3% paraformaldehyde/2% sucrose in PBS and permeabilized for 5 min. with 0.05% Triton-X 100 diluted in PBS. The fixed slides were blocked in 5% BSA in TBS-T buffer for 2 h at room temperature. The cells then were incubated with a 1:125 dilution of anti-C×43 monoclonal antibody for 30 min at room temperature. The bound antibody was detected using a Vectastain ABC kit, followed by staining with VIP substrate according to manufacturer's instructions (Vector Laboratories, Burlingame, Calif.). Counter staining was performed using 0.5% methyl green. […]"}, "[6]": {"test_system": "OC14 cells", "assay": "Cell death by trypan blue staining in OC14 cells", "assay_type": "cell-based, mouse", "experimental": "OC14 cells were plated, cultured at 33° C. for 3 days and then incubated at 39° C. for 5-7 days before addition of PTH peptides for a further 16 hr, followed by trypan blue staining (see Example 1). A) Human PTH 1-84 dose response, B) Response to hPTH(1-84), 100 nM and hPTH(39-84), 1000 nM, C) Response to [Tyr^34]hPTH(24-84), 100 nM, D) Caspase dependance (“C”=controls) The Caspase-3 inhibitor DEVD (“D”) was added 1 hr prior to addition of 100 nM hPTH(1-84) (“P”). Results are expressed as mean±SD of quadruplicate determinations of the percentage of nonvital trypan blue-stained cells. * p<0.05, ** p<0.01.\nBriefly, cells were plated at 50,000 cells/well in 24-well dishes at 33° C. and shifted to nonpermissive conditions (39° C.) after 2 days. Cells were grown at 39° C. for an additional 4-6 days in α-MEM supplemented with 2.5% of FBS and 1% PS and then treated with different hormones for additional 16-18 hr. Non-adherent cells were combined with adherent cells that were released from the cultures with trypsin-EDTA, centrifuged and resuspended in 0.1% trypan blue solution."}, "[7]": {"test_system": "Gs-linked PTH receptors", "settings": "F1 cells and osteoblastic subclones; cited from earlier work"}}, "note": "Read-outs that look alike come from different tables or passages of the source.", "data": [{"substance": "hPTH(1-84): Recombinant human parathyroid hormone (1-84), the intact hormone", "values": [{"measurement": "Apoptosis, TUNEL immunocytochemical assay", "setting": "[1]", "result": "Increased apoptosis"}, {"measurement": "Nuclear pyknosis and chromatin condensation, Hoechst dye 33258", "setting": "[2]", "result": "increased nuclear pylulosis ;aid chromatin condensation"}, {"measurement": "Reduction of specific 125I-[Tyr34]hPTH(19-84) binding", "setting": "[3]; 200 nM", "result": "19±5", "unit": "%"}, {"measurement": "Reduction of specific 125I-[Tyr34]hPTH(19-84) binding", "setting": "[3]; 1000 nM", "result": "66±7", "unit": "%"}, {"measurement": "cAMP response", "setting": "[4]", "result": "absence of a detectable cAMP response"}, {"measurement": "Expression of C×43 by immunostaining", "setting": "[5]", "result": "increased the expression of C×43"}, {"measurement": "Concentration of maximal effect upon cell death", "setting": "[6]; 16 hr, trypan blue", "result": 10, "unit": "nM"}, {"measurement": "EC50", "setting": "[6]; 16 hr, trypan blue, read-out: EC50, effect upon cell death", "result": "~0.1", "unit": "nM"}, {"measurement": "Change in trypan blue-stained cells", "setting": "[6]; after 16 hr", "result": "doubling"}, {"measurement": "cAMP response", "setting": "[7]", "result": "no detectable cAMP response"}]}]}
